From patent US6534313B1, “Genetically modified plants having modulated brassinosteroid signaling” (The Salk Institute for Biological Studies, priority 1999, dated 2003)

Experiments:
[1] = test system: bas1-DphyB-4 and phyB-4 seedlings; experiment: Feeding experiment: metabolism of deuterium-labeled and non-labeled brassinolide in aseptically grown seedlings, GC-MS; assay type: in vivo; conditions: Arabidopsis seedlings, one day, GC-MS comparison with authentic sample
Description: To test the hypothesis that overexpression of bas1 gene product results in hydroxylation of brassinolide, metabolism of deuterium-labeled and non-labeled brassinolide was examined using aseptically grown seedlings. As possible hydroxylated metabolites of brassinolide, 14-hydroxybrassinolide, 20-hydroxybrassinolide, 25-hydroxybrassinolide, 26-hydroxybrassinolide, and 28-hydroxybrassinolide were chemically synthesized. The possible hydroxylated brassinolide fractions from the feeding experiments were analyzed by gas chromatograph-mass spectrometry (GC-MS) after conversion to methaneboronate-trimethylsilyl derivatives.
In preliminary experiments, bas1-DphyB-4 and phyB-4 seedlings were fed ^2H6-labeled brassinolide (d6-BL) and incubated for one day. […] When BL was fed to the seedlings, 26-OHBL was detected as a metabolite of BL. […] When d6-BL was fed to the seedlings, fragment ions such as m/z 625, 583 and 570 were detected. […]
For brassinosteroid measurements, plants were grown on soil (Neff and Chory, supra) in short day conditions (8 hours of light, […] of dark) for five weeks before rosettes were harvested in liquid nitrogen. […] Brassinosteroids were analyzed according to the methods described by (S. Fujioka et al., Plant Cell 9:1951-1962, 1997). […]
Each fraction was subjected to GC-MS analysis after derivatization. 26-OHBL was detected from retention time of 2-3 min. […]

[2] = test system: Arabidopsis seedlings; experiment: Brassinolide dose response of seedling hypocotyls and cotyledon petioles; assay type: in vivo
Description: FIGS. 3A-C are graphs showing the dose response of hypocotyls of seedlings to brassinosteroid as measured after 6 days on varying levels of brassinolide. […] Col-O=closed circles; phyB-4=open diamonds; bas1-DphyB-4=open circles; BAS1′ antisense line=closed diamonds; and det2-1=open triangles. Error bars represent one standard error from the mean. When no error bars are visible, they are smaller than the symbols.
By contrast, a brassinosteroid biosynthesis mutant det2-1 produced petioles that were shorter than the wild type in the light, while the petioles of phyB-4 mutants were longer than the wild type in the light. In both cases, these phenotypes were rescued by exposure to increasing amounts of brassinosteroids.
(CIDtech Research Inc., Mississauga, Ontario, Canada) 2 mM Brassinolide stock was made by dissolving in 95% (v/v) EtOH and stored at −20° C. The 1 μM solution was made by a 1:2000 fold dilution of the 2 mM stock in standard growth media. All other concentrations including the negative control contained the same amount of EtOH. Light conditions for fluence responses in red and blue light and seedling measurements were performed as described in Neff and Chory, supra. An E30LED growth chamber (Percival Scientific, Boone, IA) supplied far-red light. Far-red fluences were measured with a portable spectroradiometer (model LI-1800, Li-Cor, Inc., Lincoln, Nebr.).

Compound	metabolite detected after feeding to seedlings [1]	hypocotyl hyper-responsivity to brassinolide ([2]; BAS1 antisense lines, grown in the dark, 6 days)	hypocotyl response to brassinolide ([2]; BAS1 antisense lines, grown in the light, 6 days)	rosette response to brassinolide ([2]; plants overexpressing bas1 (bas1-DphyB-4), white light)
2H6-labeled brassinolide [d6-BL]	d6-26-OHBL	–	–	–
CC(C)[C@H](C)[C@@H](O)[C@H](O)[C@@H](C)[C@H]1CC[C@H]2[C@@H]3COC(=O)[C@H]4C[C@H](O)[C@H](O)C[C@]4(C)[C@H]3CC[C@]12C [BL, brassinolide]	26-OHBL	not	hyper-responsivity	insensitive
